Experimental data published in paper PMC8151276, “An Integrated Approach toward NanoBRET Tracers for Analysis of GPCR Ligand Engagement” (Molecules, 2021).

Biological target: T1, GPR50 (Homo sapiens, UniProt Q13585)
T1 construct: purchased Promega (in-house HiBiT-GPCR construct library, NanoBRET)
Assay: NanoBRET screen HiBiT-GPR50 in HEK293
Type: binding
Experimental: Each tracer candidate was screened across the entire library of HiBiT-GPCR constructs using NanoBRET as the detection modality. As depicted in Figure 4A, the specificity of interactions was evaluated through decrease in BRET due to competitive displacement of a bound tracer by excess parental compound. Each tracer was analyzed for binding to each HiBiT-GPCR fusion in the absence and in the presence of competing parental compound. Briefly, HEK293 cells were transfected with HiBiT-GPCR constructs diluted into promoterless DNA to reduce expression and maximize translocation to the cell surface. Each tracer candidate was then screened at concentrations of 1 μM and 0.1 μM across cells expressing these fusions. Cells were treated for 1.5 h with tracer either alone or in the presence of 20 μM competing parental compound (i.e., control). BRET was measured upon addition of purified LgBiT and subsequent complementation with HiBiT genetically fused to a GPCR. The specificity of interactions was assessed through a decrease in BRET signal due to competitive displacement of the bound tracer. To further gauge the robustness of these interactions, the fold response over the control (i.e., BRETtracer/BRETcontrol) was calculated. We chose a 1.5-fold response, which translates to ≥7-fold signal over noise as the minimal threshold required to score an interaction as positive.
HiBiT-GPCR DNA constructs were diluted in 10 mM Tris pH 8 to a final concentration of 0.01 μg/μL, arrayed in 96-well plates and stored at −20 °C. For transfection, HEK293 cells were suspended in Opti-MEM (without phenol red) supplemented with 2% fetal bovine serum (Seradigm) and 100 units/mL penicillin–streptomycin (Gibco) at a final concentration of 220,000 cells/mL and dispensed into white 96-well plates at 90 μL/well. Subsequent transfections and screens were carried using an Agilent Bravo Automated Liquid Handling Platform. First, the 96-well HiBiT DNA arrays were diluted 25-fold in Opti-MEM (without serum or phenol red) to a final concentration of 0.0004 μg/μL and 20 μL of the diluted DNAs were transferred into new 96-well plates. Next, promoterless carrier DNA (1 μg/μL) was diluted 25-fold (0.04 μg/μL) and then dispensed into the diluted arrays at 20 μL/well. Following brief mixing, Viafect transfection reagent (Promega) diluted 16-fold into Opti-MEM was dispensed into the plates at 40 μL/well. After mixing by pipetting, plates were incubated for 10 min on the pipetting station deck. The DNA-transfection reagent complexes were then added to plates containing cells. To facilitate the screen, 10 μL of DNA-transfection reagent complexes were added in duplicates to the top 4 and bottom 4 rows, resulting in two identical 48-well arrays per plate. Plates with transfected cells were incubated for 18–20 h at 37 °C/5% CO2. A screen of each tracer across the entire library using two different concentrations requires duplicate plates of transfected cells. Depending on the number of tracers being screened, transfections can be scaled up using the same ratios. The next day, for each tracer, four 20× screening solutions in tracer dilution buffer (Promega) were prepared: two duplicates at final concentration of 20 μM and two duplicates at a final concentration of 2 μM. […] The four resulting solutions were diluted 4-fold in Opti-MEM without serum or phenol red to generate 5× solutions (5 µM and 0.5 µM tracer +/− 100 μM competing compound). To screen the library, a BioTek MultiFlo FX liquid dispenser was used to dispense 22.5 µL of tracer solution to the top 4 rows and 22.5 µL tracer + competing compound solution to the 4 bottom rows. Plates were briefly mixed on an orbital shaker and incubated for 1.5 h at room temperature. […] Plates were briefly mixed on an orbital shaker and incubated for 15 min to allow complementation.

T1 sequence (Q13585 whole entry): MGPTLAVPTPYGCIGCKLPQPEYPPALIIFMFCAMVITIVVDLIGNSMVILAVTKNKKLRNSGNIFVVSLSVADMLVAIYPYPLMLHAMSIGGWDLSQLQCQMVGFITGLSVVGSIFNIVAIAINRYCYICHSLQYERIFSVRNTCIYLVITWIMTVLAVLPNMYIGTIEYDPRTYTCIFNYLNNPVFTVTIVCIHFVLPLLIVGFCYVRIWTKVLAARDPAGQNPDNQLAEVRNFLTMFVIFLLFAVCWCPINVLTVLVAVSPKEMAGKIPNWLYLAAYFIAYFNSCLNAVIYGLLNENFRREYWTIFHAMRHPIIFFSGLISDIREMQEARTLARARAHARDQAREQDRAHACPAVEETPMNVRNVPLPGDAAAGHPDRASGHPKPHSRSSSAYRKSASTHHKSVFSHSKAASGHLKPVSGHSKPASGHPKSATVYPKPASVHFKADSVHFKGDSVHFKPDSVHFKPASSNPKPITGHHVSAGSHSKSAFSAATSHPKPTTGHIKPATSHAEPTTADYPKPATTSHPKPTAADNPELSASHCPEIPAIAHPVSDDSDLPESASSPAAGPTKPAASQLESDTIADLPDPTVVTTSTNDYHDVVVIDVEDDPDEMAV

Compound | NanoBRET Fold Response (GPR50, tracer 0.1μM) | NanoBRET Fold Response (GPR50, tracer 1μM) | further results
Cc1nc2n(c(=O)c1CCN1CCC(c3noc4cc(F)ccc34)CC1)CCCC2OC(=O)NCCOCCOCCOCCOCCNC(=O)CCc1ccc2n1[B-](F)(F)[N+]1=C(c3ccc[nH]3)C=CC1=C2 (centres unmarked) [Risperidone-2-NB590] | 0.99 | 1.01 | 
CCOC(=O)c1cc(C#N)c(N2CCC(C(=O)NS(=O)(=O)Cc3ccccc3/C=C/C(=O)NCCNC(=O)CCc3ccc4n3[B-](F)(F)[N+]3=C(c5ccc[nH]5)C=CC3=C4)CC2)nc1C [AZD1283-1-NB590] |  |  | NanoBRET Fold Response (GPR50, 0.1μM): 0.97; NanoBRET Fold Response (GPR50, 1μM): 0.97
Cc1cc2c(s1)Nc1ccccc1N=C2N1CCN(CCCNC(=O)CCOCCOCCOCCOCCNC(=O)CCc2ccc3n2[B-](F)(F)[N+]2=C(c4ccc[nH]4)C=CC2=C3)CC1 [Olanzapine-a-2-NB590] | 1.01 | 1.03 | 
COc1ccccc1N1CCN(CCCCN2C(=O)c3ccc(CNC(=O)CCOCCNC(=O)c4ccc(CNC(=O)CCc5ccc6n5[B-](F)(F)[N+]5=C(c7ccc[nH]7)C=CC5=C6)cc4)cc3C2=O)CC1 [NAN-190-3-NB590] | 0.97 | 0.89 | 
CC(C)N(CC[C@H](c1ccccc1)c1cc(CCNC(=O)CCOCCOCCOCCOCCNC(=O)CCc2ccc3n2[B-](F)(F)[N+]2=C(c4ccc[nH]4)C=CC2=C3)ccc1O)C(C)C [Tolterodine-2-NB590] | 1.12 | 0.93 | 
CN(C)CCC=C1c2ccccc2CCc2ccc(C(=O)NCCNC(=O)CCOCCOCCOCCOCCNC(=O)CCc3ccc4n3[B-](F)(F)[N+]3=C(c5ccc[nH]5)C=CC3=C4)cc21 [Amitriptyline-b-2-NB590] | 0.99 | 0.99 | 
O=C(CCOCCOCCOCCOCCNC(=O)CCc1ccc2n1[B-](F)(F)[N+]1=C(c3ccc[nH]3)C=CC1=C2)NCCCN1CCN(C2=Nc3ccccc3Oc3ccc(Cl)cc32)CC1 [Loxapine-a-2-NB590] | 0.74 | 1.09 | 
O=C(CCc1ccc2n1[B-](F)(F)[N+]1=C(c3ccc[nH]3)C=CC1=C2)NCCOCCOCCNC(=O)OCCOCCN1CCN(C2=Nc3ccccc3Sc3ccccc32)CC1 [Quetiapine-a-2-NB590] | 1.11 | 0.96 | 
COc1ccccc1N1CCN(CCCCN2C(=O)c3ccc(CNC(=O)CCOCCOCCOCCOCCNC(=O)CCc4ccc5n4[B-](F)(F)[N+]4=C(c6ccc[nH]6)C=CC4=C5)cc3C2=O)CC1 [NAN-190-2-NB590] | 1.00 |  | 
COc1ccc2[nH]c(-c3ccc(CNC(=O)CCOCCOCCOCCOCCNC(=O)CCc4ccc5n4[B-](F)(F)[N+]4=C(c6ccc[nH]6)C=CC4=C5)cc3)c(CCNC(C)=O)c2n1 [AzomelatoninICO9-2-NB590] |  |  | NanoBRET Fold Response (0.1μM tracer): 0.96; NanoBRET Fold Response (1μM tracer): 1.01
O=C(CCOCCOCCOCCOCCNC(=O)CCc1ccc2n1[B-](F)(F)[N+]1=C(c3ccc[nH]3)C=CC1=C2)NCCCN1CCN(C2=Nc3cc(Cl)ccc3Nc3ccccc32)CC1 [Clozapine-a-2-NB590] |  |  | NanoBRET Fold Response (GPR50, 0.1μM tracer): 1.04; NanoBRET Fold Response (GPR50, 1μM tracer): 1.00
CCCn1c(=O)c2[nH]c(-c3ccc(OCC(=O)NCCNC(=O)CCOCCNC(=O)c4ccc(CNC(=O)CCc5ccc6n5[B-](F)(F)[N+]5=C(c7ccc[nH]7)C=CC5=C6)cc4)cc3)nc2n(CCC)c1=O [XAC-3-NB590] | 1.05 | 1.04 | 
O=C(CCc1ccc2n1[B-](F)(F)[N+]1=C(c3ccc[nH]3)C=CC1=C2)NCc1ccc(C(=O)NCCOCCOCCNCC(O)COc2cccc3ccccc23)cc1 (centres unmarked) [Propranolol-3-NB590] |  |  | NanoBRET Fold Response (GPR50, 0.1μM): 1.01; NanoBRET Fold Response (GPR50, 1μM): 1.05
O=C(CCc1ccc2n1[B-](F)(F)[N+]1=C(c3ccc[nH]3)C=CC1=C2)NCc1ccc(C(=O)NCCOCCC(=O)N[C@@H]2CC[C@@]3(O)[C@H]4Cc5ccc(O)c6c5[C@@]3(CCN4CC3CC3)[C@H]2O6)cc1 [Naltrexone-3-NB590] | 0.94 | 0.97 | 
N#CN=C(NCCCOc1cccc(CN2CCCCC2)c1)NCCNC(=O)CCOCCOCCOCCOCCNC(=O)CCc1ccc2n1[B-](F)(F)[N+]1=C(c3ccc[nH]3)C=CC1=C2 [Aminopotentidine-2-NB590] | 1.02 | 0.97 | 
COc1ccc2c(n1)c(CCNC(C)=O)cn2CCNC(=O)CCc1ccc2n1[B-](F)(F)[N+]1=C(c3ccc[nH]3)C=CC1=C2 [Azamelatonin-1-NB590] |  |  | NanoBRET Fold Response (0.1μM tracer): 0.95; NanoBRET Fold Response (1μM tracer): 0.91
CC(C)N(CC[C@H](c1ccccc1)c1cc(CCNC(=O)c2ccc(CNC(=O)CCc3ccc4n3[B-](F)(F)[N+]3=C(c5ccc[nH]5)C=CC3=C4)cc2)ccc1O)C(C)C [Tolterodine-BZ-NB590] | 0.94 | 0.39 | 
CN1CCN(C2=Nc3cc(Cl)ccc3Nc3ccc(CNC(=O)CCOCCOCCOCCOCCNC(=O)CCc4ccc5n4[B-](F)(F)[N+]4=C(c6ccc[nH]6)C=CC4=C5)cc32)CC1 [Clozapine-b-2-NB590] |  |  | NanoBRET Fold Response (GPR50, 0.1μM tracer): 0.98; NanoBRET Fold Response (GPR50, 1μM tracer): 0.97
